According to patent publication US8673908B2, “Kynurenine production inhibitor” (Kyowa Hakko Kirin Co., Ltd., priority 2008, dated 2014):

What follows are compounds tested on kynurenine production in IFN-γ-treated KATO-III cells (assay: Inhibitory activity on kynurenine production (Test Example 1)). Details: Homo sapiens, IFN-γ treatment, culture for 96 hours, read-out: IC50 value, inhibition of kynurenine production.
Type: cell-based
Method: This assay was performed according to a method modified from the method described in the Journal of Biological Chemistry (J. Biol. Chem.), vol. 263, pp. 2041-2048 (1988). Culture of KATO-III derived from human gastric cancer cells was performed by use of RPMI 1640 (GIBCO, 11875) supplemented with 10 vol % FBS (GIBCO, 10091-148, lot. 665285). 1 μL of a DMSO solution of the test substance was diluted with 199 μL of the culture medium, and the diluted solution was added to wells of a 384 well plate (10 μL/well). Then, IFN-γ (Sigma, 1-3265) was added to the culture medium so that the concentration of IFN-γ was 31.25 ng/mL, and the KATO-III cells were suspended at 50,000 cells/ml, in the culture medium. 40 μL of the suspension was added to each well (2,000 cells/well), and culture of the KATO-III cells was performed at 37° C. under a 5% CO2 atmosphere for 96 hours. The final concentration of DMSO was limited to 0.1 vol % or less so that DMSO itself might not affect the kynurenine concentration measured by this assay. After the culture, 10 μL of a 30 w/v % aqueous trichloroacetic acid solution was added to each well, and incubation was performed at 65° C. for 30 minutes. The plate was centrifuged at 2,500×g for 5 minutes, and then 15 μL of the supernatant in each well was transferred into another 384 well plate. To each of the transferred supernatants, 15 μL of a 2 w/v % solution of p-dimethylaminobenzaldehyde in acetic acid was added, incubation was performed at 65° C. for 20 minutes, and then the absorbance at 480 nm was measured.
[formula] Sample: the absorbance value of the well to which a DMSO solution containing the test substance was added and in which cells were treated with IFN-γ. Blank: the absorbance value of the well to which only DMSO, not the test substance was added and in which cells were treated with IFN-γ. Control: the absorbance value of the well to which only DMSO, not the test substance was added and in which cells were not treated with IFN-γ.
In this assay, expression of IDO in KATO-III cells is induced by IFN-γ treatment and then kynurenine in the culture medium is quantified. It is known that the kynurenine concentration in a culture medium increases in proportion to the enzymatic activity of intracellular IDO (for example, the Journal of Biological Chemistry (J. Biol. Chem.), vol. 263, pp. 2041-2048 (1988)). […] It is known that kynurenine production is inhibited by IDO inhibitors (for example, the Journal of Clinical Investigation (J. Clin. Invest.), vol. 117, No. 5, pp. 1147-1154 […]), and thus it is expected that Compound (I) also has an inhibitory effect on IDO.

COc1ccc(COc2nc(Cl)cnc2NS(=O)(=O)c2cccc(Cl)c2Cl)cc1 [Compound 2] and O=S(=O)(Nc1ncc(Cl)nc1OCc1ccc2ccccc2c1)c1cccc(Cl)c1Cl [Compound 3] fall in the same range of IC50: 1000 to 10000 nM for the first, 1000 to 10000 nM for the second.

First: COc1ccc(COc2nc3cccnc3nc2NS(=O)(=O)c2cccc(Cl)c2Cl)cc1 [Compound 5]
Second: O=S(=O)(Nc1nc2ccccc2nc1OCc1ccc2ncccc2c1)c1cccc(Cl)c1Cl [Compound 24, 2,3-dichloro-N-{3-[(quinolin-6-yl)methoxy]quinoxalin-2-yl}-benzenesulfonamide]
The IC50 of the first is higher: 1000 to 10000 nM for the first, under 1000 nM for the second. The second is the more potent here.

O=S(=O)(Nc1nc2ccccc2nc1OCc1cccnc1)c1cccc(Cl)c1Cl [Compound 6, 2,3-dichloro-N-{3-[(pyridin-3-yl)methoxy]quinoxalin-2-yl}-benzenesulfonamide] and O=S(=O)(Nc1nc2ccccc2nc1OCc1ccncc1)c1cccc(Cl)c1Cl [Compound 26, 2,3-dichloro-N-{3-[(pyridin-4-yl)methoxy]quinoxalin-2-yl}-benzenesulfonamide] fall in the same range of IC50: 1000 to 10000 nM for the first, 1000 to 10000 nM for the second.

O=S(=O)(Nc1nc2ccccc2nc1OCc1ccc2ccccc2c1)c1cccc(Cl)c1Cl [Compound 10, 2,3-dichloro-N-{3-[(2-naphthyl)methoxy]quinoxalin-2-yl}-benzenesulfonamide] and O=S(=O)(Nc1nc2ccccc2nc1OCc1ccc2ccccc2c1)c1c(Cl)cccc1Cl [Compound 27, 2,6-dichloro-N-{3-[(2-naphthyl)methoxy]quinoxalin-2-yl}-benzenesulfonamide] cannot be ordered by IC50: under 1000 nM for the first, under 1000 nM for the second.

O=S(=O)(Nc1nc2ccccc2nc1OCc1ccc2ccccc2c1)c1cccc2ccccc12 [Compound 11, N-{3-[(2-naphthyl)methoxy]quinoxalin-2-yl}-1-naphthalenesulfonamide] and O=S(=O)(Nc1nc2ccccc2nc1OCc1ccc2ccccc2c1)c1ccccc1C(F)(F)F [Compound 21, 2-(trifluoromethyl)-N-{3-[(2-naphthyl)methoxy]quinoxalin-2-yl}benzenesulfonamide] cannot be ordered by IC50: under 1000 nM for the first, under 1000 nM for the second.

Compared with Cc1ccc(S(=O)(=O)Nc2nc3ccccc3nc2OCc2ccc3ccccc3c2)cc1 [Compound 13, N-{3-[(2-naphthyl)methoxy]quinoxalin-2-yl}-4-toluenesulfonamide], O=S(=O)(Nc1nc2ccccc2nc1OCc1ccc2ccccc2c1)c1ccc(C(F)(F)F)cc1 [Compound 23, 4-(trifluoromethyl)-N-{3-[(2-naphthyl)methoxy]quinoxalin-2-yl}benzenesulfonamide] is lower in IC50: 1000 to 10000 nM for the first, under 1000 nM for the second. The second is the more potent here.

Compared with O=S(=O)(Nc1nc2ccccc2nc1OCc1ccc2ccccc2c1)c1cc(Cl)cc(Cl)c1 [Compound 15, 3,5-dichloro-N-{3-[(2-naphthyl)methoxy]quinoxalin-2-yl}-benzenesulfonamide], O=S(=O)(Nc1nc2ccccc2nc1OCc1ccc2ccccc2c1)c1ccc(Cl)c(Cl)c1 [Compound 30, 3,4-dichloro-N-{3-[(2-naphthyl)methoxy]quinoxalin-2-yl}-benzenesulfonamide] is higher in IC50: under 1000 nM for the first, 1000 to 10000 nM for the second. The first is the more potent here.

First: O=S(=O)(Nc1nc2ccccc2nc1OCc1cccc(C(F)(F)F)c1)c1cccc(Cl)c1Cl [Compound 18, 2,3-dichloro-N-{3-[(3-trifluoromethylphenyl)methoxy]-quinoxalin-2-yl}benzenesulfonamide]
Second: O=S(=O)(Nc1nc2ccccc2nc1OCc1ccccc1)c1cccc(Cl)c1Cl [Compound 32, 2,3-dichloro-N-(3-benzyloxyquinoxalin-2-yl)benzenesulfonamide]
The IC50 of the first is lower: under 1000 nM for the first, 1000 to 10000 nM for the second. The first is the more potent here.

O=S(=O)(Nc1nc2ccccc2nc1OCc1ccc2ccccc2c1)c1cccc(C(F)(F)F)c1 [Compound 22, 3-(trifluoromethyl)-N-{3-[(2-naphthyl)methoxy]quinoxalin-2-yl}benzenesulfonamide] and O=S(=O)(Nc1nc2ccccc2nc1OCc1ccc2ccccc2c1)c1cc(Cl)ccc1Cl [Compound 28, 2,5-dichloro-N-{3-[(2-naphthyl)methoxy]quinoxalin-2-yl}-benzenesulfonamide] cannot be ordered by IC50: under 1000 nM for the first, under 1000 nM for the second.

O=S(=O)(Nc1nc2ccccc2nc1OCc1ccc2ccccc2c1)c1ccc(Cl)cc1Cl [Compound 29, 2,4-dichloro-N-{3-[(2-naphthyl)methoxy]quinoxalin-2-yl}-benzenesulfonamide] and COc1ccc(C(Oc2nc3ccccc3nc2NS(=O)(=O)c2ccccc2Cl)C(F)(F)F)cc1 (stereo not drawn) [Compound 40, 2-chloro-N-{3-[2,2,2-trifluoro-1-(4-methoxyphenyl)ethoxy]-quinoxalin-2-yl}benzenesulfonamide] cannot be ordered by IC50: under 1000 nM for the first, under 1000 nM for the second.

CCC(Oc1nc2ccccc2nc1NS(=O)(=O)c1cccc(Cl)c1Cl)c1cccnc1 (stereo not drawn) [Compound 31, 2,3-dichloro-N-{3-[1-(pyridin-3-yl)propoxy]quinoxalin-2-yl}benzenesulfonamide] and CC(C)C(Oc1nc2ccccc2nc1NS(=O)(=O)c1cccc(Cl)c1Cl)c1cccnc1 (stereo not drawn) [Compound 34, 2,3-dichloro-N-{3-[2-methyl-1-(pyridin-3-yl)propoxy]-quinoxalin-2-yl}benzenesulfonamide] cannot be ordered by IC50: under 1000 nM for the first, under 1000 nM for the second.

O=S(=O)(Nc1nc2ccccc2nc1OC(c1ccc(C(F)(F)F)cc1)C(F)(F)F)c1ccccc1C(F)(F)F (stereo not drawn) [Compound 35, 2-(trifluoromethyl)-N-{3-[2,2,2-trifluoro-1-(4-trifluoromethylphenyl)ethoxy]quinoxalin-2-yl}benzenesulfonamide] and O=S(=O)(Nc1nc2ccccc2nc1OC(c1ccc(C(F)(F)F)cc1)C(F)(F)F)c1cccc(Cl)c1Cl (stereo not drawn) [Compound 36, 2,3-dichloro-N-{3-[2,2,2-trifluoro-1-(4-trifluoromethyl-phenyl)ethoxy]quinoxalin-2-yl}benzenesulfonamide] cannot be ordered by IC50: under 1000 nM for the first, under 1000 nM for the second.

CC(C)(C)C(Oc1nc2ccccc2nc1NS(=O)(=O)c1cccc(Cl)c1Cl)c1cccnc1 (stereo not drawn) [Compound 37, 2,3-dichloro-N-{3-[2,2-dimethyl-1-(pyridin-3-yl)propoxy]-quinoxalin-2-yl}benzenesulfonamide] and CC(C)(F)C(Oc1nc2ccccc2nc1NS(=O)(=O)c1cccc(Cl)c1Cl)c1cccnc1 (stereo not drawn) [Compound 39, 2,3-dichloro-N-{3-[2-fluoro-2-methyl-1-(pyridin-3-yl)-propoxy]quinoxalin-2-yl}benzenesulfonamide] cannot be ordered by IC50: under 1000 nM for the first, under 1000 nM for the second.

Cc1ccc(C(Oc2nc3ccccc3nc2NS(=O)(=O)c2ccccc2Cl)C(F)(F)F)cn1 (stereo not drawn) [Compound 41, 2-chloro-N-{3-[2,2,2-trifluoro-1-(6-methylpyridin-3-yl)-ethoxy]quinoxalin-2-yl}benzenesulfonamide] and O=S(=O)(Nc1nc2ccccc2nc1OC(c1ccccc1)C(F)(F)F)c1ccccc1Cl (stereo not drawn) [Compound 44, 2-chloro-N-[3-(2,2,2-trifluoro-1-phenylethoxy)quinoxalin-2-yl]benzenesulfonamide] cannot be ordered by IC50: under 1000 nM for the first, under 1000 nM for the second.

N#Cc1ccc(C(Oc2nc3ccccc3nc2NS(=O)(=O)c2ccccc2Cl)C(F)(F)F)cc1 (stereo not drawn) [Compound 42, 2-chloro-N-{3-[2,2,2-trifluoro-1-(4-cyanophenyl)ethoxy]-quinoxalin-2-yl}benzenesulfonamide] and COC(=O)C(Oc1nc2ccccc2nc1NS(=O)(=O)c1cccc(Cl)c1Cl)c1ccc(C(F)(F)F)cc1 (stereo not drawn) [Compound 43, 2,3-dichloro-N-{3-{methoxycarbonyl[4-(trifluoromethyl)-phenyl]methoxy}quinoxalin-2-yl}benzenesulfonamide] cannot be ordered by IC50: under 1000 nM for the first, under 1000 nM for the second.
